The NIST ThermoML archive (doi:10.1021/je2010837)

Conditions: 101.33 kPa, Liquid; for viscosity: Concentric cylinders viscometry; for electrical conductivity: Direct current cell with electrodes

CCCC[N+]1(C)CCCC1.O=S(=O)([N-]S(=O)(=O)C(F)(F)F)C(F)(F)F
Conditions	electrical conductivity [S/m]	mass density [kg/m3]	viscosity [mPa·s]
293.15 K	–	1399	–
298.15 K	0.277	1394.57	76.73
299.15 K	0.288	–	–
300.15 K	0.3	–	–
301.15 K	0.313	–	–
302.15 K	0.327	–	–
303.15 K	0.34	1390.02	61.67
304.15 K	0.354	–	–
305.15 K	0.368	–	–
306.15 K	0.383	–	–
307.15 K	0.398	–	–
308.15 K	0.412	1385.48	50.49
309.15 K	0.427	–	–
310.15 K	0.443	–	–
311.15 K	0.459	–	–
312.15 K	0.475	–	–
313.15 K	0.492	1380.93	41.73
314.15 K	0.509	–	–
315.15 K	0.527	–	–
316.15 K	0.544	–	–
317.15 K	0.562	–	–
318.15 K	0.58	1376.28	34.67
319.15 K	0.598	–	–
320.15 K	0.616	–	–
321.15 K	0.635	–	–
322.15 K	0.655	–	–
323.15 K	0.673	1371.64	29.48
324.15 K	0.694	–	–
325.15 K	0.713	–	–
326.15 K	0.733	–	–
327.15 K	0.754	–	–
328.15 K	0.775	1366.9	25.43
329.15 K	0.795	–	–
330.15 K	0.816	–	–
331.15 K	0.839	–	–
332.15 K	0.86	–	–
333.15 K	0.884	1362.2	21.9
334.15 K	0.911	–	–
335.15 K	0.938	–	–
336.15 K	0.965	–	–
337.15 K	0.993	–	–
338.15 K	1.02	1357.35	19.16
339.15 K	1.05	–	–
340.15 K	1.08	–	–
341.15 K	1.11	–	–
342.15 K	1.13	–	–
343.15 K	1.17	1352.44	16.82
344.15 K	1.2	–	–
345.15 K	1.23	–	–
346.15 K	1.26	–	–
347.15 K	1.29	–	–
348.15 K	1.32	1347.48	14.8
349.15 K	1.36	–	–
350.15 K	1.4	–	–
351.15 K	1.43	–	–
352.15 K	1.46	–	–
353.15 K	1.49	1342.48	13.24

CCCC[n+]1ccn(C)c1.O=S(=O)([N-]S(=O)(=O)C(F)(F)F)C(F)(F)F
Conditions	electrical conductivity [S/m]	mass density [kg/m3]	viscosity [mPa·s]
293.15 K	–	1439.27	–
298.15 K	0.402	1434.3	50.05
299.15 K	0.417	–	–
300.15 K	0.435	–	–
301.15 K	0.453	–	–
302.15 K	0.47	–	–
303.15 K	0.488	1429.4	41.24
304.15 K	0.506	–	–
305.15 K	0.524	–	–
306.15 K	0.543	–	–
307.15 K	0.562	–	–
308.15 K	0.581	1424.57	33.65
309.15 K	0.602	–	–
310.15 K	0.622	–	–
311.15 K	0.643	–	–
312.15 K	0.664	–	–
313.15 K	0.684	1419.61	28.28
314.15 K	0.706	–	–
315.15 K	0.729	–	–
316.15 K	0.751	–	–
317.15 K	0.773	–	–
318.15 K	0.795	1414.67	23.91
319.15 K	0.82	–	–
320.15 K	0.842	–	–
321.15 K	0.866	–	–
322.15 K	0.891	–	–
323.15 K	0.921	1409.65	20.64
324.15 K	0.949	–	–
325.15 K	0.983	–	–
326.15 K	1.01	–	–
327.15 K	1.04	–	–
328.15 K	1.07	1404.64	17.9
329.15 K	1.1	–	–
330.15 K	1.14	–	–
331.15 K	1.17	–	–
332.15 K	1.21	–	–
333.15 K	1.24	1399.6	15.51
334.15 K	1.27	–	–
335.15 K	1.31	–	–
336.15 K	1.34	–	–
337.15 K	1.38	–	–
338.15 K	1.41	1394.43	13.71
339.15 K	1.45	–	–
340.15 K	1.48	–	–
341.15 K	1.52	–	–
342.15 K	1.55	–	–
343.15 K	1.59	1389.16	12.09
344.15 K	1.63	–	–
345.15 K	1.67	–	–
346.15 K	1.71	–	–
347.15 K	1.74	–	–
348.15 K	1.78	1383.85	10.78
349.15 K	1.82	–	–
350.15 K	1.86	–	–
351.15 K	1.9	–	–
352.15 K	1.94	–	–
353.15 K	1.98	1378.53	9.69
